Laboratory results as given in article PMC12196264, “Design and Synthesis of Pyridine-Based Pyrrolo[2,3-d]pyrimidine Analogs as CSF1R Inhibitors: Molecular Hybridization and Scaffold Hopping Approach” (Pharmaceuticals, 2025).

Assays:
Assay in all cases: Kinase panel
Type in all cases: biochemical
CHEK1 = CHEK1 (Homo sapiens, UniProt O14757)
Procedure: (§1) Ta b l e S 1. Inhibition (%) by compound 14c towards di7erent kinases. Values are average of two
(§2) measurements at 1000 nM test concentration. The ATP concentration was equal to KM.
(§3) Kinase ATP conc. % inhibition

ABL1 = ABL1 (Homo sapiens, UniProt P00519)
Procedure: as §1, §2, §3

ROCK1 = ROCK1 (Homo sapiens, UniProt Q13464)
Procedure: as §1, §2, §3

FER = FER (Homo sapiens, UniProt P16591)
Procedure: as §1, §2, §3

SRC = SRC (Homo sapiens, UniProt P12931)
Procedure: as §1, §2, §3

EGFR = EGFR (Homo sapiens, UniProt P00533)
Procedure: as §1, §2, §3

CDK1 = CDK1 (Homo sapiens, UniProt P06493)
Procedure: as §1, §2, §3

ERBB4 = ERBB4 (Homo sapiens, UniProt Q15303)
Procedure: as §1, §2, §3

LYN B = LYN B (Homo sapiens, UniProt P07948)
Procedure: as §1, §2, §3

FLT1 = FLT1 (Homo sapiens, UniProt P17948)
Procedure: as §1, §2, §3

MUSK = MUSK (Homo sapiens, UniProt O15146)
Procedure: as §1, §2, §3

BLK = BLK (Homo sapiens, UniProt P51451)
Procedure: as §1, §2, §3

FLT4 = FLT4 (Homo sapiens, UniProt P35916)
Procedure: as §1, §2, §3

PDGFRB = PDGFRB (Homo sapiens, UniProt P09619); conditions: 1000 nM test concentration, ATP Km app, average of two measurements
Procedure: as §1, §2, §3

FYN = FYN (Homo sapiens, UniProt P06241)
Procedure: as §1, §2, §3

AKT1 = AKT1 (Homo sapiens, UniProt P31749)
Procedure: as §1, §2, §3

FLT3 = FLT3 (Homo sapiens, UniProt P36888)
Procedure: as §1, §2, §3

PAK1 = PAK1 (Homo sapiens, UniProt Q13153)
Procedure: as §1, §2, §3

AXL = AXL (Homo sapiens, UniProt P30530)
Procedure: as §1, §2, §3

Aurora A = Aurora A (Homo sapiens, UniProt O14965)
Procedure: as §1, §2, §3

EPHA2 = EPHA2 (Homo sapiens, UniProt P29317)
Procedure: as §1, §2, §3

LTK = LTK (Homo sapiens, UniProt P29376)
Procedure: as §1, §2, §3

GSK3B = GSK3B (Homo sapiens, UniProt P49841)
Procedure: as §1, §2, §3

BTK = BTK (Homo sapiens, UniProt Q06187)
Procedure: as §1, §2, §3

MINK1 = MINK1 (Homo sapiens, UniProt Q8N4C8)
Procedure: as §1, §2, §3

MKNK1 = MKNK1 (Homo sapiens, UniProt Q9BUB5)
Procedure: as §1, §2, §3

MET = MET (Homo sapiens, UniProt P08581)
Procedure: as §1, §2, §3

CAMK1D = CAMK1D (Homo sapiens, UniProt Q8IU85)
Procedure: as §1, §2, §3

Sequence of PDGFRB (P09619 33-1106, species assumed): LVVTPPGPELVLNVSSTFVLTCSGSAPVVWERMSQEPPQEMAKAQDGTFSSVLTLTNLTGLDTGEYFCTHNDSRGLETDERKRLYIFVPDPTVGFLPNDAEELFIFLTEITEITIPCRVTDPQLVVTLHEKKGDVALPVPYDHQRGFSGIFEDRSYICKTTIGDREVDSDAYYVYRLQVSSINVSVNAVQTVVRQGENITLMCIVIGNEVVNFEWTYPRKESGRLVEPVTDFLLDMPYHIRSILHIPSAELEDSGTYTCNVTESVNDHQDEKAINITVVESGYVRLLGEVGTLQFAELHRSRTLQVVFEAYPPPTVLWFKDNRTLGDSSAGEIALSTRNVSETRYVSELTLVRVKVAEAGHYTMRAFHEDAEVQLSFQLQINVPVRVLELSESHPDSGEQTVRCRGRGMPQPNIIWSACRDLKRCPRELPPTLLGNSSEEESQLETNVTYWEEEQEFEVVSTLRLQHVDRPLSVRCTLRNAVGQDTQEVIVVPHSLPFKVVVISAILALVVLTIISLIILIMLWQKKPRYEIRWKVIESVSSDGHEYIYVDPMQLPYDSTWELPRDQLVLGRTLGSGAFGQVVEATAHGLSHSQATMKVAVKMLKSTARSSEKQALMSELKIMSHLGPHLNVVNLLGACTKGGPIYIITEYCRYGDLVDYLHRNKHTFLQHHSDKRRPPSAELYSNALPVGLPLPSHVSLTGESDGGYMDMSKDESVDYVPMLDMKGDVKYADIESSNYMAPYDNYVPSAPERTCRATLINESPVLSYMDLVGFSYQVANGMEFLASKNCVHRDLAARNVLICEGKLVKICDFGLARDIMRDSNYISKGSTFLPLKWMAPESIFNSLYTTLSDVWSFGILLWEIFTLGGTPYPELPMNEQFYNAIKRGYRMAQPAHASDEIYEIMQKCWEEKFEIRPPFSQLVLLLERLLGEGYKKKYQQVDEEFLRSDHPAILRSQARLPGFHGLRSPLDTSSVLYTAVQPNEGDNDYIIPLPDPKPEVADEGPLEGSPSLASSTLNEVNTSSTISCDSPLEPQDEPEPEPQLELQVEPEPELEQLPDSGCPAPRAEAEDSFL
Sequence of SRC (P12931 whole entry, species assumed): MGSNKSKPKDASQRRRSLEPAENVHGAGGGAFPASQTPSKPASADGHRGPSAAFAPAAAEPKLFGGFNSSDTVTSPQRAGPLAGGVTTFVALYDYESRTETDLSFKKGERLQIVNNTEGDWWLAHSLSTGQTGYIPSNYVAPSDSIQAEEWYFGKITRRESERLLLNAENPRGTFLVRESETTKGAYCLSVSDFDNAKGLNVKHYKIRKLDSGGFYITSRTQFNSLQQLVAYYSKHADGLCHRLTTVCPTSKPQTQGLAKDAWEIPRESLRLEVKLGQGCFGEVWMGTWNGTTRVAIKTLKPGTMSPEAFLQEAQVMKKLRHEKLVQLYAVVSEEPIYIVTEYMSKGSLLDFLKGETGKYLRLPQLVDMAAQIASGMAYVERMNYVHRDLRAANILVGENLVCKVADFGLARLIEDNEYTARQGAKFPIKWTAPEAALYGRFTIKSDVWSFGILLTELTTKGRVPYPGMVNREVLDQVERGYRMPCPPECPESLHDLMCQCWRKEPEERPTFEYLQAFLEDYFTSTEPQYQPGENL
Sequence of AXL (P30530 26-894, species assumed): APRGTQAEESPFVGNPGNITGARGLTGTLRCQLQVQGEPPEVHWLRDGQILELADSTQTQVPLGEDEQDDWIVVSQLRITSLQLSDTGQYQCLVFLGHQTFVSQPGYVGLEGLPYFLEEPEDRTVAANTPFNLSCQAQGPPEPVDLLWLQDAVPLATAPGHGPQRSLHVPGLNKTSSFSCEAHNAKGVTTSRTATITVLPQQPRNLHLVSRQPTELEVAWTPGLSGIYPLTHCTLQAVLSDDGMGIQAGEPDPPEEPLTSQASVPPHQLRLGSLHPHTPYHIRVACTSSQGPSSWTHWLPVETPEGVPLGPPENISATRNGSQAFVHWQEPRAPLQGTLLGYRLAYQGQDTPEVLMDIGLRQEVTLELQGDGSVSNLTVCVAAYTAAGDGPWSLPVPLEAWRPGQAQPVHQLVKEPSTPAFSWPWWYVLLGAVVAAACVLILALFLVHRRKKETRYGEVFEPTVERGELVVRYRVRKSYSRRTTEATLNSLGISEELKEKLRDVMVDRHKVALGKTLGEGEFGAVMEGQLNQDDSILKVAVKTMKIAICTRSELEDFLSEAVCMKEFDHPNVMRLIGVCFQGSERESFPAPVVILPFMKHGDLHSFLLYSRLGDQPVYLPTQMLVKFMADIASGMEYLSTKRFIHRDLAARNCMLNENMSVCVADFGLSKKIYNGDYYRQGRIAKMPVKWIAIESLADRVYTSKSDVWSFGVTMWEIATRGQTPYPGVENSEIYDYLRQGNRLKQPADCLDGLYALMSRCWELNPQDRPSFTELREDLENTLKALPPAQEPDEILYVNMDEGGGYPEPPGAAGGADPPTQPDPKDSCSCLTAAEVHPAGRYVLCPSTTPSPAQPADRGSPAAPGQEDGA
Sequence of BLK (P51451 whole entry, species assumed): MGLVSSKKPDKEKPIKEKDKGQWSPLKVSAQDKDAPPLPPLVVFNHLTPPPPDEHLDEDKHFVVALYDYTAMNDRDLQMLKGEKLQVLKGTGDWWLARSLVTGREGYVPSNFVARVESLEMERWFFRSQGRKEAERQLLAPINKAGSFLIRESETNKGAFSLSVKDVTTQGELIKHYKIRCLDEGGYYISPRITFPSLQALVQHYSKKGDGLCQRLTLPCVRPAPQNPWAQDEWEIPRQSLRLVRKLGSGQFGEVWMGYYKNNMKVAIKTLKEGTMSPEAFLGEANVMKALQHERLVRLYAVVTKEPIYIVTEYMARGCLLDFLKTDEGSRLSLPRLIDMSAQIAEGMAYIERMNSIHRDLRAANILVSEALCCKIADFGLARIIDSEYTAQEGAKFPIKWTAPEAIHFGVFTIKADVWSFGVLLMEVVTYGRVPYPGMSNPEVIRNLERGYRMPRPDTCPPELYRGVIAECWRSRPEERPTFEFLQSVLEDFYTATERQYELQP
Sequence of FLT4 (P35916 25-1363, species assumed): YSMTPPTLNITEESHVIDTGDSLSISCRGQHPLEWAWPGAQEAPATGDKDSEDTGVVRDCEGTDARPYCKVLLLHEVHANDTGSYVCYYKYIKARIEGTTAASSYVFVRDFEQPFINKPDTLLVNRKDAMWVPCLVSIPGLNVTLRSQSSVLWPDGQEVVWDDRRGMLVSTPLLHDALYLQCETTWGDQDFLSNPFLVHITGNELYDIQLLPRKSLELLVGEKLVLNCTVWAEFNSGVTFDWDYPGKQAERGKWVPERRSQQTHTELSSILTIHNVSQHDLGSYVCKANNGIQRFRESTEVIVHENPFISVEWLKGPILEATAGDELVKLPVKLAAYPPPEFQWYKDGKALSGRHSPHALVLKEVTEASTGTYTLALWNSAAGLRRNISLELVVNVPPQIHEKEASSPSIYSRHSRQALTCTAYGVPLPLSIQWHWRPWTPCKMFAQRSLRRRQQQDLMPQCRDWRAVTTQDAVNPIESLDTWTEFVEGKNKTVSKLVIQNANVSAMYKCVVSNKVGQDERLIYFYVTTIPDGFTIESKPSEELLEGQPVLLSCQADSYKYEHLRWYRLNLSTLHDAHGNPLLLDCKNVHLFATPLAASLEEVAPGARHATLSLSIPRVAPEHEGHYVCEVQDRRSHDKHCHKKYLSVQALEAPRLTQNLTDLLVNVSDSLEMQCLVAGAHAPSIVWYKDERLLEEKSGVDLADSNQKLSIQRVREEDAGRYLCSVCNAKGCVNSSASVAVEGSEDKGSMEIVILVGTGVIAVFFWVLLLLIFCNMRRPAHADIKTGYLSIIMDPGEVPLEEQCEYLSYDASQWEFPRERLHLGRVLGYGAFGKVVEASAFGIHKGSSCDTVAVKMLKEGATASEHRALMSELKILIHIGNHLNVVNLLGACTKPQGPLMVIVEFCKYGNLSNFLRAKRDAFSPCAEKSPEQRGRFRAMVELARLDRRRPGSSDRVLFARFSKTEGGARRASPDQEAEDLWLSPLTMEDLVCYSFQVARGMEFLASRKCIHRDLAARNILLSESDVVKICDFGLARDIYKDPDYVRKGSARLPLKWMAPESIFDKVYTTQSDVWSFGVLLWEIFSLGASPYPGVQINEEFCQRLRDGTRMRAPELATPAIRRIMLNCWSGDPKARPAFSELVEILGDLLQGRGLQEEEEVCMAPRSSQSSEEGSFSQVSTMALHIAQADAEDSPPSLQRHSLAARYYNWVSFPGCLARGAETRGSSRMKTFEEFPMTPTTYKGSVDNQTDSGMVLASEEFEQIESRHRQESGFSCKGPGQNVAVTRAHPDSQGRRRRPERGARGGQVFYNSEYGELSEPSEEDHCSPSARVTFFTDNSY
Sequence of AKT1 (P31749 whole entry, species assumed): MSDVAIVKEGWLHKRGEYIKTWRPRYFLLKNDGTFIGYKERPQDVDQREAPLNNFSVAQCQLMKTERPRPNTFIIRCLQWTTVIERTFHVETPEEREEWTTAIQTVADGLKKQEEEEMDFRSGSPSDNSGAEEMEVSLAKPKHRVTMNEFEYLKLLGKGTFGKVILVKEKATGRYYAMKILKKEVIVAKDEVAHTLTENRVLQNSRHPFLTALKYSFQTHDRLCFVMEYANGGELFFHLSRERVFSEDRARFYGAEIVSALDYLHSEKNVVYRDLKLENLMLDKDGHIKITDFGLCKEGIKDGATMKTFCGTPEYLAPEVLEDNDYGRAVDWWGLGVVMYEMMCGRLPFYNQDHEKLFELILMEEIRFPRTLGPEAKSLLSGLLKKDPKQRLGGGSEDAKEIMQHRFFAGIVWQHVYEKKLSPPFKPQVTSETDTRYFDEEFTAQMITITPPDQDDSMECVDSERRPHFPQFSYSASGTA

inhibition at 1 µM (CHEK1): 11% | inhibition at 1 µM (ABL1): 71% | inhibition at 1 µM (ROCK1): -1% | inhibition at 1 µM (FER): 6% | inhibition at 1 µM (SRC): 43% | inhibition at 1 µM (EGFR): 57% | inhibition at 1 µM (CDK1): 12% | inhibition at 1 µM (ERBB4): 2% | inhibition at 1 µM (LYN B): 26% | inhibition at 1 µM (FLT1): 5% | inhibition at 1 µM (MUSK): 19% | inhibition at 1 µM (BLK): 19% | inhibition at 1 µM (FLT4): 2% | inhibition at 1 µM (PDGFRB): 9% | % inhibition PDGFRB (PDGFRB; 1 µM): 8% | inhibition at 1 µM (FYN): 16% | inhibition at 1 µM (AKT1): 2% | inhibition at 1 µM (FLT3): 26% | inhibition at 1 µM (PAK1): 9% | inhibition at 1 µM (AXL): 4% | inhibition at 1 µM (Aurora A): 7% | inhibition at 1 µM (EPHA2): 23% | inhibition at 1 µM (LTK): 15% | inhibition at 1 µM (GSK3B): 11% | inhibition at 1 µM (BTK): 13% | inhibition at 1 µM (MINK1): 69% | inhibition at 1 µM (MKNK1): 1% | inhibition at 1 µM (MET): 10% | inhibition at 1 µM (CAMK1D): 8%
SMILES: Cc1cccc(CN(C)c2ncnc3[nH]c(-c4ccc(NCc5ccc(C(F)(F)F)nc5)nc4)cc23)c1 [Compound 14c, N-Methyl-N-(3-methylbenzyl)-6-(6-(((6-(trifluoromethyl)pyridin-3-yl)methyl)amino)pyridin-3-yl)-7H-pyrrolo[2,3-d]pyrimidin-4-amine]
